{"source": "the NIST ThermoML archive (doi:10.1016/j.fluid.2018.07.012)", "settings": "Fluid (supercritical or subcritical phases), Dynamic light scattering", "note": "Numbers after ± are expanded uncertainties."}
{"smiles": "O=C=O", "note": "[carbon dioxide]", "values": [{"measurement": "thermal diffusivity", "setting": "293.55 K, 10990 kPa", "value": "4.54e-08 ± 1.4e-09", "unit": "m2/s"}, {"measurement": "thermal diffusivity", "setting": "295.33 K, 8060 kPa", "value": "3.64e-08 ± 1.1e-09", "unit": "m2/s"}, {"measurement": "thermal diffusivity", "setting": "295.4 K, 10050 kPa", "value": "4.04e-08 ± 1.2e-09", "unit": "m2/s"}, {"measurement": "thermal diffusivity", "setting": "297.27 K, 7520 kPa", "value": "2.9e-08 ± 1e-09", "unit": "m2/s"}, {"measurement": "thermal diffusivity", "setting": "297.45 K, 7000 kPa", "value": "2.67e-08 ± 9e-10", "unit": "m2/s"}, {"measurement": "thermal diffusivity", "setting": "302.29 K, 11020 kPa", "value": "3.74e-08 ± 1.2e-09", "unit": "m2/s"}, {"measurement": "thermal diffusivity", "setting": "302.43 K, 8030 kPa", "value": "2.25e-08 ± 8e-10", "unit": "m2/s"}, {"measurement": "thermal diffusivity", "setting": "302.5 K, 8980 kPa", "value": "2.81e-08 ± 1e-09", "unit": "m2/s"}, {"measurement": "thermal diffusivity", "setting": "303.34 K, 10000 kPa", "value": "3.28e-08 ± 1.1e-09", "unit": "m2/s"}, {"measurement": "thermal diffusivity", "setting": "305.32 K, 7050 kPa", "value": "3.23e-08 ± 2e-09", "unit": "m2/s"}, {"measurement": "thermal diffusivity", "setting": "305.77 K, 7510 kPa", "value": "1.22e-08 ± 1e-09", "unit": "m2/s"}, {"measurement": "thermal diffusivity", "setting": "307 K, 8060 kPa", "value": "8.8e-09 ± 5e-10", "unit": "m2/s"}, {"measurement": "thermal diffusivity", "setting": "307.3 K, 9050 kPa", "value": "2.14e-08 ± 8e-10", "unit": "m2/s"}, {"measurement": "thermal diffusivity", "setting": "307.42 K, 10540 kPa", "value": "2.76e-08 ± 9e-10", "unit": "m2/s"}, {"measurement": "thermal diffusivity", "setting": "312.35 K, 8020 kPa", "value": "2.68e-08 ± 1.1e-09", "unit": "m2/s"}, {"measurement": "thermal diffusivity", "setting": "312.44 K, 9010 kPa", "value": "9.3e-09 ± 6e-10", "unit": "m2/s"}, {"measurement": "thermal diffusivity", "setting": "313.93 K, 10020 kPa", "value": "1.71e-08 ± 7e-10", "unit": "m2/s"}, {"measurement": "thermal diffusivity", "setting": "314.2 K, 11020 kPa", "value": "2.66e-08 ± 1e-09", "unit": "m2/s"}, {"measurement": "thermal diffusivity", "setting": "316.1 K, 7000 kPa", "value": "6.47e-08 ± 1.9e-09", "unit": "m2/s"}, {"measurement": "thermal diffusivity", "setting": "316.65 K, 7490 kPa", "value": "5.72e-08 ± 1.8e-09", "unit": "m2/s"}, {"measurement": "thermal diffusivity", "setting": "317.11 K, 9010 kPa", "value": "1.99e-08 ± 8e-10", "unit": "m2/s"}, {"measurement": "thermal diffusivity", "setting": "317.19 K, 10190 kPa", "value": "1.4e-08 ± 8e-10", "unit": "m2/s"}, {"measurement": "thermal diffusivity", "setting": "317.56 K, 8000 kPa", "value": "4.32e-08 ± 1.5e-09", "unit": "m2/s"}, {"measurement": "thermal diffusivity", "setting": "322.67 K, 10290 kPa", "value": "2.13e-08 ± 9e-10", "unit": "m2/s"}, {"measurement": "thermal diffusivity", "setting": "323.48 K, 11000 kPa", "value": "1.97e-08 ± 8e-10", "unit": "m2/s"}, {"measurement": "thermal diffusivity", "setting": "324.73 K, 9080 kPa", "value": "4.26e-08 ± 1.4e-09", "unit": "m2/s"}, {"measurement": "thermal diffusivity", "setting": "324.99 K, 8160 kPa", "value": "6.12e-08 ± 1.8e-09", "unit": "m2/s"}, {"measurement": "thermal diffusivity", "setting": "326.51 K, 7010 kPa", "value": "8.98e-08 ± 2.5e-09", "unit": "m2/s"}, {"measurement": "thermal diffusivity", "setting": "326.93 K, 7480 kPa", "value": "7.92e-08 ± 2.3e-09", "unit": "m2/s"}, {"measurement": "thermal diffusivity", "setting": "328.26 K, 11000 kPa", "value": "2.63e-08 ± 9e-10", "unit": "m2/s"}, {"measurement": "thermal diffusivity", "setting": "333.11 K, 11010 kPa", "value": "3.22e-08 ± 1.1e-09", "unit": "m2/s"}, {"measurement": "thermal diffusivity", "setting": "333.51 K, 9020 kPa", "value": "6e-08 ± 1.8e-09", "unit": "m2/s"}, {"measurement": "thermal diffusivity", "setting": "333.97 K, 8140 kPa", "value": "8.06e-08 ± 2.3e-09", "unit": "m2/s"}, {"measurement": "thermal diffusivity", "setting": "334.01 K, 10320 kPa", "value": "4.36e-08 ± 1.4e-09", "unit": "m2/s"}, {"measurement": "thermal diffusivity", "setting": "336.92 K, 7000 kPa", "value": "1.08e-07 ± 2.9e-09", "unit": "m2/s"}, {"measurement": "thermal diffusivity", "setting": "337.46 K, 7510 kPa", "value": "1.02e-07 ± 2.8e-09", "unit": "m2/s"}, {"measurement": "thermal diffusivity", "setting": "343.12 K, 8000 kPa", "value": "9.67e-08 ± 2.7e-09", "unit": "m2/s"}, {"measurement": "thermal diffusivity", "setting": "343.7 K, 9050 kPa", "value": "7.77e-08 ± 2.2e-09", "unit": "m2/s"}, {"measurement": "thermal diffusivity", "setting": "343.72 K, 10060 kPa", "value": "6.38e-08 ± 1.8e-09", "unit": "m2/s"}, {"measurement": "thermal diffusivity", "setting": "343.95 K, 10970 kPa", "value": "5.2e-08 ± 1.6e-09", "unit": "m2/s"}, {"measurement": "thermal diffusivity", "setting": "345.99 K, 11010 kPa", "value": "5.38e-08 ± 1.6e-09", "unit": "m2/s"}, {"measurement": "thermal diffusivity", "setting": "346.99 K, 7020 kPa", "value": "1.31e-07 ± 3.5e-09", "unit": "m2/s"}, {"measurement": "thermal diffusivity", "setting": "347.28 K, 7500 kPa", "value": "1.17e-07 ± 3.2e-09", "unit": "m2/s"}, {"measurement": "thermal diffusivity", "setting": "353.14 K, 10270 kPa", "value": "7.34e-08 ± 2.1e-09", "unit": "m2/s"}, {"measurement": "thermal diffusivity", "setting": "353.95 K, 9020 kPa", "value": "9.9e-08 ± 2.7e-09", "unit": "m2/s"}, {"measurement": "thermal diffusivity", "setting": "354.57 K, 8000 kPa", "value": "1.15e-07 ± 3.1e-09", "unit": "m2/s"}, {"measurement": "thermal diffusivity", "setting": "356.06 K, 11030 kPa", "value": "7.11e-08 ± 2e-09", "unit": "m2/s"}, {"measurement": "thermal diffusivity", "setting": "357.15 K, 7030 kPa", "value": "1.46e-07 ± 3.9e-09", "unit": "m2/s"}, {"measurement": "thermal diffusivity", "setting": "357.37 K, 7500 kPa", "value": "1.37e-07 ± 3.6e-09", "unit": "m2/s"}, {"measurement": "thermal diffusivity", "setting": "363.07 K, 10000 kPa", "value": "8.99e-08 ± 2.5e-09", "unit": "m2/s"}, {"measurement": "thermal diffusivity", "setting": "363.43 K, 9020 kPa", "value": "1.07e-07 ± 2.9e-09", "unit": "m2/s"}, {"measurement": "thermal diffusivity", "setting": "364.02 K, 8020 kPa", "value": "1.31e-07 ± 3.5e-09", "unit": "m2/s"}, {"measurement": "thermal diffusivity", "setting": "365.89 K, 11050 kPa", "value": "8.37e-08 ± 2.3e-09", "unit": "m2/s"}, {"measurement": "thermal diffusivity", "setting": "367.01 K, 7010 kPa", "value": "1.62e-07 ± 4.2e-09", "unit": "m2/s"}, {"measurement": "thermal diffusivity", "setting": "367.19 K, 7600 kPa", "value": "1.54e-07 ± 4.1e-09", "unit": "m2/s"}, {"measurement": "thermal diffusivity", "setting": "373.34 K, 10090 kPa", "value": "1.04e-07 ± 2.8e-09", "unit": "m2/s"}, {"measurement": "thermal diffusivity", "setting": "373.59 K, 9010 kPa", "value": "1.24e-07 ± 3.3e-09", "unit": "m2/s"}, {"measurement": "thermal diffusivity", "setting": "374.62 K, 8010 kPa", "value": "1.49e-07 ± 4e-09", "unit": "m2/s"}, {"measurement": "thermal diffusivity", "setting": "375.92 K, 11040 kPa", "value": "9.69e-08 ± 2.6e-09", "unit": "m2/s"}, {"measurement": "thermal diffusivity", "setting": "377.05 K, 7040 kPa", "value": "1.82e-07 ± 4.7e-09", "unit": "m2/s"}, {"measurement": "thermal diffusivity", "setting": "377.25 K, 7480 kPa", "value": "1.75e-07 ± 4.6e-09", "unit": "m2/s"}, {"measurement": "thermal diffusivity", "setting": "382.51 K, 10040 kPa", "value": "1.23e-07 ± 3.3e-09", "unit": "m2/s"}, {"measurement": "thermal diffusivity", "setting": "383.53 K, 8040 kPa", "value": "1.66e-07 ± 4.4e-09", "unit": "m2/s"}, {"measurement": "thermal diffusivity", "setting": "383.71 K, 9020 kPa", "value": "1.41e-07 ± 3.7e-09", "unit": "m2/s"}, {"measurement": "thermal diffusivity", "setting": "385.64 K, 10990 kPa", "value": "1.15e-07 ± 3.1e-09", "unit": "m2/s"}, {"measurement": "thermal diffusivity", "setting": "386.8 K, 7480 kPa", "value": "1.87e-07 ± 4.9e-09", "unit": "m2/s"}, {"measurement": "thermal diffusivity", "setting": "386.82 K, 7010 kPa", "value": "2.09e-07 ± 5.5e-09", "unit": "m2/s"}, {"measurement": "thermal diffusivity", "setting": "392.06 K, 10550 kPa", "value": "1.32e-07 ± 3.5e-09", "unit": "m2/s"}, {"measurement": "thermal diffusivity", "setting": "393.82 K, 9040 kPa", "value": "1.57e-07 ± 4.1e-09", "unit": "m2/s"}, {"measurement": "thermal diffusivity", "setting": "394.36 K, 7960 kPa", "value": "1.89e-07 ± 4.9e-09", "unit": "m2/s"}, {"measurement": "thermal diffusivity", "setting": "395.37 K, 11030 kPa", "value": "1.23e-07 ± 3.3e-09", "unit": "m2/s"}, {"measurement": "thermal diffusivity", "setting": "396.68 K, 7010 kPa", "value": "2.2e-07 ± 5.7e-09", "unit": "m2/s"}, {"measurement": "thermal diffusivity", "setting": "396.85 K, 7490 kPa", "value": "2.04e-07 ± 5.3e-09", "unit": "m2/s"}, {"measurement": "thermal diffusivity", "setting": "402.64 K, 10200 kPa", "value": "1.45e-07 ± 3.8e-09", "unit": "m2/s"}, {"measurement": "thermal diffusivity", "setting": "403.05 K, 9020 kPa", "value": "1.66e-07 ± 4.3e-09", "unit": "m2/s"}, {"measurement": "thermal diffusivity", "setting": "403.62 K, 8070 kPa", "value": "1.98e-07 ± 5.2e-09", "unit": "m2/s"}, {"measurement": "thermal diffusivity", "setting": "405.15 K, 11090 kPa", "value": "1.3e-07 ± 3.5e-09", "unit": "m2/s"}, {"measurement": "thermal diffusivity", "setting": "406.44 K, 7020 kPa", "value": "2.38e-07 ± 6.1e-09", "unit": "m2/s"}, {"measurement": "thermal diffusivity", "setting": "406.5 K, 7500 kPa", "value": "2.2e-07 ± 5.7e-09", "unit": "m2/s"}]}
